The values that follow come from US11987568B2, “Allosteric inhibitor of WEE1 kinase” (H. LEE MOFFITT CANCER CENTER AND RESEARCH INSTITUTE, INC., priority 2018, dated 2024).

Several values for one entry are separate records, joined by “and”; a condition that tells them apart may be missing. Equal entries are not always repeated.

One data set has as its system LAPC4 cells. In words: LAPC4 cell proliferation, trypan blue exclusion assay. As to conditions: Homo sapiens, 96 hr, viable cells by trypan blue exclusion. The format is cell-based. From the text: FIGS. 2A-2B show identification of 3 distinct types of inhibitors. […] In addition, the lysates were also subjected to by immunoblotting with […]-Cdc2 or actin antibodies (middle and bottom panels). […] The number vehicle treated cells were used as control and percent of surviving cells were plotted. […] The number of vehicle treated cells were used as control and percent of surviving cells were plotted. […] The number vehicle treated cells were used as control and percent of surviving cells were plotted. 7 of these epigenetic inhibitors in various assays such as cell proliferation assay, an in vitro kinase assay were performed and WEE1 autophosphorylation in vivo was determined. Prostate cancer derived LAPC4 cells were treated with inhibitors and its effect on cell proliferation was examined.

The test system of data set [1] is histone H2B Tyr37-phopshorylation (pY37-H2B). The data set can be described thus: WEE1 epigenetic activity in cells: pY37-H2B immunoprecipitation/immunoblot. The format is cell-based, human. As to conditions: LNCaP cells. An excerpt: FIGS. 2A-2B show identification of 3 distinct types of inhibitors. […] In addition, the lysates were also subjected to by immunoblotting with pY15-Cdc2 or actin antibodies (middle and bottom panels). […] The number vehicle treated cells were used as control and percent of surviving cells were plotted.
FIGS. 4A-4B show structures of ‘hits’ identified in WEE1 epigenetic inhibitor screen. […] The reaction mix was then subjected to immunoprecipitated with WEE1 antibodies, followed by immunoblotting with pTyr antibodies. […] In addition, the lysates were also subjected to immunoblotting with actin antibodies (bottom panel).
FIGS. 7A-7C show identification of WEIN-159 as a potent WEE1 epigenetic inhibitor. […] In addition, lysates were immunoprecipitated with pY37-H2B antibodies, followed by immunoblotting with H2B antibodies (middle panel). […] The lysates were also subjected to immunoblotting with pY15-Cdc2 antibodies and were immunoprecipitated with pY37-H2B antibodies, followed by immunoblotting with H2B antibodies (middle panels). In addition, the lysates were also subjected to immunoblotting with H2B antibodies (bottom panel). […] The lysates were also subjected to immunoblotting with pY15-Cdc2 antibodies and were immunoprecipitated with pY37-H2B antibodies, followed by immunoblotting with H2B antibodies (middle panels). In addition, the lysates were also subjected to immunoblotting with actin antibodies (bottom panel).
Identification of compounds with WEE1 epigenetic inhibitory role: 14 ‘hits’ that were identified in the screen are shown in FIG. 1. These compounds were further tested for their ability to inhibit WEE1 epigenetic activity. Prostate cancer derived LNCaP cells were treated with 3 uM of compounds for 48 hours. Cells were harvested, lysates were prepared, and WEE1 epigenetic activity was detected by determining histone H2B Tyr37-phopshorylation (pY37-H2B). Lysates were also assessed for WEE1 cell cycle inhibitory activity by determining Cdc2 Tyr15-phosphorylation (pY15-Cdc2). […] These are named as ‘Cell Cycle’ inhibitors. […] These compounds are the ‘Epigenetic’ inhibitors.

Data set [2] deals with Cdc2 Tyr15-phosphorylation (pY15-Cdc2). In words: WEE1 cell cycle inhibitory activity in cells: pY15-Cdc2 immunoblot. It counts as cell-based, human. As to conditions: LNCaP cells. An excerpt: FIGS. 2A-2B show identification of 3 distinct types of inhibitors. […] In addition, the lysates were also subjected to by immunoblotting with […]-Cdc2 or actin antibodies (middle and bottom panels). […] The number vehicle treated cells were used as control and percent of surviving cells were plotted. […] In addition, the lysates were also subjected to immunoblotting with actin antibodies (bottom panel). Identification of compounds with WEE1 epigenetic inhibitory role: 14 'hits' that were identified in the screen are shown in FIG. 1. These compounds were further tested for their ability to inhibit WEE1 epigenetic activity. Prostate cancer derived LNCaP cells were treated with 3 uM of compounds for 48 hours. […] Lysates were also assessed for WEE1 cell cycle inhibitory activity by determining Cdc2 Tyr15-phosphorylation ([…]-Cdc2). […] These are named as 'Cell Cycle' inhibitors. […] These compounds are the 'Epigenetic' inhibitors.

A further data set concerns gamma-H2AX. The data set can be described thus: DNA damage, gamma-H2AX immunoblot in LNCaP cells. To be noted: 3 μM, 12 hours (FIG. 3C). The format is cell-based, human. The procedure:
The reaction mix was then subjected to immunoprecipitated with WEE1 antibodies, followed by immunoblotting with pTyr antibodies (top panel). As a control, purified ACK1 protein was incubated in the reaction buffer containing ATP, in presence of 100 nM epigenetic inhibitors. The reaction mix was then subjected to immunoprecipitated with ACK1 antibodies, followed by immunoblotting with pTyr antibodies (bottom panel). […] In addition, the lysates were also subjected to immunoblotting with actin antibodies (bottom panel). […] In addition, the lysates were also subjected to immunoblotting with actin antibodies (bottom panel).
H2AX becomes phosphorylated on serine 139, called gamma-H2AX, is a marker of DNA damage as it localizes to sites of DNA strand breaks. This sensor then functions to trigger activation of the DNA damage response pathways. To assess whether any of the epigenetic inhibitors are potent DNA-damaging agents, cells were treated with the compounds followed by immunoblotting with gamma-H2AX antibodies.
A general note: A western blot detects proteins with antibodies after separation by electrophoresis.

A further data set deals with T1, Wee1 KD (Homo sapiens, UniProt P30291).
T1 construct: WEE1 & WEE2 (as control) kinase domains from mammalian cells (HEK293T cells) were purified
T1 sequence (P30291 299-569): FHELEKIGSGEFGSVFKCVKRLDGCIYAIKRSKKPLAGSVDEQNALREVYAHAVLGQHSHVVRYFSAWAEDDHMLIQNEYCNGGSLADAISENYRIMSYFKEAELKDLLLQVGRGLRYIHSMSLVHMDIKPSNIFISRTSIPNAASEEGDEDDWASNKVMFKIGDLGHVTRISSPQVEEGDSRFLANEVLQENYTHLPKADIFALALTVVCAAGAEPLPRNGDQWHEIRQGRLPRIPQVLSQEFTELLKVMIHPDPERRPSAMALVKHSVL
In words: Differential Scanning Fluorimetry (DSF), Wee1 KD. As to conditions: kinase domain purified from HEK293T cells. It counts as binding. How it is done: (§1) Binding study of WEE1 epigenetic inhibitors: To identify the precise binding region/domain of WEE1 epigenetic inhibitors, WEE1 & WEE2 (as control) kinase domains from mammalian cells (HEK293T cells) were purified. The binding of inhibitors was assessed using Differential Scanning Fluorimetry (DSF).
For orientation: Differential scanning fluorimetry follows unfolding on heating by fluorescence.

For a further data set, the target named is T2, Wee2 KD (Homo sapiens, UniProt P0C1S8).
T2 construct: WEE1 & WEE2 (as control) kinase domains from mammalian cells (HEK293T cells) were purified
T2 sequence (P0C1S8 212-486): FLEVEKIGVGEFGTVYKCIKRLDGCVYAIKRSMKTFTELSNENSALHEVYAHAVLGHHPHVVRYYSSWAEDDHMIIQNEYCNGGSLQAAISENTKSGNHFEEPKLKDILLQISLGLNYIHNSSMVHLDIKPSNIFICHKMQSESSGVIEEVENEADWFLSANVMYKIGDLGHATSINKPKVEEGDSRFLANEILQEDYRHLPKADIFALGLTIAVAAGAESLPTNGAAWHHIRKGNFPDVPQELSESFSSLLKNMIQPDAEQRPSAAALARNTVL
In words: Differential Scanning Fluorimetry (DSF), Wee2 KD. It counts as binding. To be noted: kinase domain purified from HEK293T cells. The procedure:
as §1

For another data set, the system named is LNCaP cells. In words: Cell cycle analysis by propidium iodide staining. The format is cell-based, human. As to conditions: 16 hours. The procedure: To further validate this observation, LNCaP cells were treated with WEIN-159 and 172 for 16 hours and cell cycle analysis was performed by propidium iodide staining.
Data set [3] has as its target full length human WEE1 kinase (Homo sapiens, UniProt P30291). In words: ELISA based assay: WEE1 phosphorylation of biotinylated H2B peptide spanning Tyr37. Further details: A full length human WEE1 kinase that was enzymatically active was purified from insect cell; ELISA assay % Inhibition: concentration or dose not given beside the values. The format is biochemical. As to conditions: for ELISA Inhibition (%): Table 1, several values in a cell are repeat determinations. From the text: Designing of a Novel inhibitor Screening Platform: […] A full length human WEE1 kinase that was enzymatically active was purified from insect cell. […] NCI diversity set compound library ( 1600 compounds) was used for the screening.
On the technique in general: ELISA stands for enzyme-linked immunosorbent assay.

Sequence of full length human WEE1 kinase (P30291 whole entry): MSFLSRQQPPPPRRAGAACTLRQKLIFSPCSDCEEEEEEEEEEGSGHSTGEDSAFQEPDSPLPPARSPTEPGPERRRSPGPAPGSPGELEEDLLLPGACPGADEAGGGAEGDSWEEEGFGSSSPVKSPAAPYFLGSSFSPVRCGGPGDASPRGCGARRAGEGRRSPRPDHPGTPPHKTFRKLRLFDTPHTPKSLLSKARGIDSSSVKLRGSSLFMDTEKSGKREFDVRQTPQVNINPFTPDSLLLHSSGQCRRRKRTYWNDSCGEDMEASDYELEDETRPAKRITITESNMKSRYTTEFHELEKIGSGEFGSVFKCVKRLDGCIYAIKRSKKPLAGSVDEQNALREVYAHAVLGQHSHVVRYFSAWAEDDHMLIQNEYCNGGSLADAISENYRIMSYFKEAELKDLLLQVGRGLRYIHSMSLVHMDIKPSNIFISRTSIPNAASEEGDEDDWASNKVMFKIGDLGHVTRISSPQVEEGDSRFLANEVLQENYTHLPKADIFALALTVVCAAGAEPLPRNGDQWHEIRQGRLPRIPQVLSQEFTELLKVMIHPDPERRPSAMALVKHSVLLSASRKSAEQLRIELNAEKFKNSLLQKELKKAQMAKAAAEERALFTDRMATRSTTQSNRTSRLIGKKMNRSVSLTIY

What is called IC50 is the concentration that inhibits the measured activity by half. In the data set on LAPC4 cells, `C=CCn1c(=O)c2cnc(Nc3ccc(N4CCN(C)CC4)cc3)nc2n1-c1cccc(C(C)(C)O)n1` [AZD-1775, reference compound] gave an IC50 of 350 nM. Also, in data set [1] (3 uM, 48 hours (FIG. 2A)), the “H2B Tyr37-phosphorylation (pY37-H2B)” value is “loss of both H2B and Cdc2-phosphorylation”. The “Cdc2 Tyr15-phosphorylation (pY15-Cdc2)” value in data set [2] (3 uM, 48 hours (FIG. 2A)) is “loss of both H2B and Cdc2-phosphorylation”. In addition, the “DNA damage (gamma-H2AX)” value with gamma-H2AX is “intensified double-strand DNA breakage”. Further, the “ΔTm for Wee1 KD (° C.)” value at Wee1 KD was determined as 16.2 °C. Besides, the “ΔTm for Wee2 KD (° C.)” value at Wee2 KD worked out at 11.9 °C. In the data set on LNCaP cells, the “Cell Cycle Analysis G1” value was 56.51, the “Cell Cycle Analysis G2/M” value came out at 4.27 and the “Cell Cycle Analysis S” value is 39.22. In data set [3] (Table 3, No peptide = 100, No inhibitor = 0), the “ELISA assay % Inhibition” value came out at 54%.
Regarding `Nc1ccc(NC(=O)c2ccc(C(=O)Nc3ccc(N)cc3)o2)cc1` [SG5-111, N^2,N^5-bis(4-aminophenyl)furan-2,5-dicarboxamide], the “H2B Tyr37-phopshorylation” value in data set [1] (10 μM, 24 hours (FIG. 7A)) is recorded as “almost complete loss of H2B Tyr37-phopshorylation”. Moreover, the “Cdc Tyr-phopshorylation” value in data set [2] (10 μM, 24 hours (FIG. 7A)) is reported as “unaffected”. The “ELISA Inhibition (%)” value in data set [3] was 46% and 55%.
With `Cl.Cl.Cl.Nc1ccc(NC(=O)c2ccc(C(=O)Nc3ccc(N)c(F)c3)nc2)cc1F` [SG5-147-3, (2,5-Bis((4-amino-3-fluorophenyl)carbamoyl)pyridin-1-ium-1-yl)hydridochlorate(I) dihydrochloride], the “ELISA Inhibition (%)” value in data set [3] was determined as 50%.
The same measure, in the same setting: then `Cl.Nc1ccc(NC(=O)C2CCC(C(=O)Nc3ccc(N)c(F)c3)CC2)cc1F` (stereo not shown) [SG5-147-4], with 20%; and `Cc1cc(C(=O)Nc2ccc(N)c(Cl)c2)c(C)cc1C(=O)Nc1ccc(N)c(Cl)c1.Cl` [SG5-147-5], with 2%.
Still for that read-out and setting: the same measure for `Cl.Nc1ccc(NC(=O)c2ccc(C(=O)Nc3ccc(N)c(Cl)c3)o2)cc1Cl` [SG5-147-6]: 13%; for `Cl.Nc1ccc(NC(=O)C2CCC(C(=O)Nc3ccc(N)c(Cl)c3)CC2)cc1Cl` (stereo not shown) [SG5-147-8]: 17%.
On the same count and under the same terms, the same measure for `Cc1cc(C(=O)Nc2ccc(CN)cc2)c(C)cc1C(=O)Nc1ccc(CN)cc1.Cl` [SG5-147-9]: 9%; for `Cl.NCc1ccc(NC(=O)c2ccc(C(=O)Nc3ccc(CN)cc3)o2)cc1` [SG5-147-10]: 4%; for `Cl.NCc1ccc(NC(=O)C2CCC(C(=O)Nc3ccc(CN)cc3)CC2)cc1` (stereo not shown) [SG5-147-12]: −9%.
`Cc1cc(C(=O)NCc2ccc(N)cc2)c(C)cc1C(=O)NCc1ccc(N)cc1.Cl` [SG5-147-13]: the “ELISA Inhibition (%)” value in data set [3] amounted to 12%.
Still for that read-out and setting: the same measure for `Cl.Nc1ccc(CNC(=O)c2ccc(C(=O)NCc3ccc(N)cc3)o2)cc1` [SG5-147-14]: −16%; for `Cl.Nc1ccc(CNC(=O)C2CCC(C(=O)NCc3ccc(N)cc3)CC2)cc1` (stereo not shown) [SG5-147-16]: −14%; for `Cc1cc(C(=O)NC2CCNCC2)c(C)cc1C(=O)NC1CCNCC1.Cl` [SG5-147-17]: 21%.
Consider `Cl.O=C(NC1CCNCC1)c1ccc(C(=O)NC2CCNCC2)o1` [SG5-147-18], for which the “ELISA Inhibition (%)” value in data set [3] is recorded as −5%.
The same measure, in the same setting: the same measure for `Cl.O=C(NC1CCNCC1)C1CCC(C(=O)NC2CCNCC2)CC1` (stereo not shown) [SG5-147-20]: 22%; for “(2,5-Bis((4-(aminomethyl)phenyl)carbamoyl)pyridin-1-ium-1-yl)hydridochlorate(I) dihydrochloride [SG5-147-11]”: 68%.
